Series [1] addresses T1, UDP-glucuronosyltransferase 1A1 (Homo sapiens, UniProt P22309).
T1 sequence (P22309 whole entry): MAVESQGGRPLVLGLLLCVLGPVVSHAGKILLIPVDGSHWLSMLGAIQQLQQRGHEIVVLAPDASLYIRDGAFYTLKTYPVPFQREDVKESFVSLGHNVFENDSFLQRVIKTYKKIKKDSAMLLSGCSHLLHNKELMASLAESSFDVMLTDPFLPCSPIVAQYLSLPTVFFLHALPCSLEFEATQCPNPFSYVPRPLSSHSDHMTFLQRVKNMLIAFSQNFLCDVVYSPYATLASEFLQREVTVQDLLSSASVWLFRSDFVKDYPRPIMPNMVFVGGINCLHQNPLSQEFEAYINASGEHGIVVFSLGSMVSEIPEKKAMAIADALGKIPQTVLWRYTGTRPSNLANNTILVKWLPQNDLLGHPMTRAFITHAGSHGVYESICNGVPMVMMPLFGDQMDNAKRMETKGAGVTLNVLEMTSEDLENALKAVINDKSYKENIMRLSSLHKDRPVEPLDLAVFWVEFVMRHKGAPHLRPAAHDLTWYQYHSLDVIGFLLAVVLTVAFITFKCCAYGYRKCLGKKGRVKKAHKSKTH
As to the kind of experiment: Inhibition of human UGT1A1. The format is ADME.

Series [2] is described as follows: Apparent permeability across human Caco2 cells. Type of series: ADME, cell-based. The settings on record: Caco-2. Background: Caco-2 cells form a polarised layer with tight junctions and transporters.
Another series concerns Hepatitis C virus. Put plainly: Antiviral activity against HCV genotype 1b infected in human HuH7 cells after 3 days by luciferase assay. The format is functional, organism-based, Hepacivirus hominis. Particulars: Huh-7, 72 h; call rule not given here.
Series [3] can be described thus: Cmax in Sprague-Dawley rat plasma at 10 mg/kg, po administered as single dose measured after 24 hrs. Type of series: ADME, organism-based. On the set-up: dose 10 mg/kg, route oral.
Series [4] in a line: AUC (infinity) in Cynomolgus monkey at 2 mg/kg, iv administered as single dose. The format is ADME, organism-based, Macaca fascicularis. On the set-up: dose 2 mg/kg, route intravenous, time infinity. Particulars: in vivo.
Series [5] in a line: Plasma concentration in Cynomolgus monkey at 2 mg/kg, po administered as single dose measured after 24 hrs. The format is ADME, organism-based, Macaca fascicularis.
Series [6] can be described thus: Inhibition of recombinant full length HCV genotype 1b NS3/4A protease by FRET assay. Set-up: species or system Hepatitis C virus subtype 1b.
A further series has as its target Cytochrome P450 2D6 (Homo sapiens, UniProt P10635). Put plainly: Inhibition of human CYP2D6. The format is ADME.
A short description of series [7]: AUCt in Sprague-Dawley rat at 2 mg/kg, iv administered as single dose. Type of series: ADME, organism-based. Particulars: in vivo.
Series [8] can be described thus: Plasma concentration in CD-1 mouse at 2 mg/kg, po administered as single dose measured after 24 hrs. The format is ADME, organism-based.
Series [9] is described as follows: Clearance in Sprague-Dawley rat at 2 mg/kg, iv administered as single dose. Type of series: ADME, organism-based. The settings on record: in vivo.
The nature of series [10]: Half life in CD-1 mouse at 2 mg/kg, iv administered as single dose measured after 24 hrs. The format is ADME, organism-based. Particulars: in vivo.
The nature of series [11]: Tmax in Cynomolgus monkey at 2 mg/kg, po administered as single dose. The format is ADME, organism-based, Macaca fascicularis. The settings on record: in vivo.
The target of series [12] is Voltage-gated inwardly rectifying potassium channel KCNH2 (Homo sapiens, UniProt Q12809). As to the kind of experiment: Inhibition of human ERG expressed in HEK293 cells. The format is cell-based.
Voltage-gated inwardly rectifying potassium channel KCNH2, sequence (Q12809 whole entry): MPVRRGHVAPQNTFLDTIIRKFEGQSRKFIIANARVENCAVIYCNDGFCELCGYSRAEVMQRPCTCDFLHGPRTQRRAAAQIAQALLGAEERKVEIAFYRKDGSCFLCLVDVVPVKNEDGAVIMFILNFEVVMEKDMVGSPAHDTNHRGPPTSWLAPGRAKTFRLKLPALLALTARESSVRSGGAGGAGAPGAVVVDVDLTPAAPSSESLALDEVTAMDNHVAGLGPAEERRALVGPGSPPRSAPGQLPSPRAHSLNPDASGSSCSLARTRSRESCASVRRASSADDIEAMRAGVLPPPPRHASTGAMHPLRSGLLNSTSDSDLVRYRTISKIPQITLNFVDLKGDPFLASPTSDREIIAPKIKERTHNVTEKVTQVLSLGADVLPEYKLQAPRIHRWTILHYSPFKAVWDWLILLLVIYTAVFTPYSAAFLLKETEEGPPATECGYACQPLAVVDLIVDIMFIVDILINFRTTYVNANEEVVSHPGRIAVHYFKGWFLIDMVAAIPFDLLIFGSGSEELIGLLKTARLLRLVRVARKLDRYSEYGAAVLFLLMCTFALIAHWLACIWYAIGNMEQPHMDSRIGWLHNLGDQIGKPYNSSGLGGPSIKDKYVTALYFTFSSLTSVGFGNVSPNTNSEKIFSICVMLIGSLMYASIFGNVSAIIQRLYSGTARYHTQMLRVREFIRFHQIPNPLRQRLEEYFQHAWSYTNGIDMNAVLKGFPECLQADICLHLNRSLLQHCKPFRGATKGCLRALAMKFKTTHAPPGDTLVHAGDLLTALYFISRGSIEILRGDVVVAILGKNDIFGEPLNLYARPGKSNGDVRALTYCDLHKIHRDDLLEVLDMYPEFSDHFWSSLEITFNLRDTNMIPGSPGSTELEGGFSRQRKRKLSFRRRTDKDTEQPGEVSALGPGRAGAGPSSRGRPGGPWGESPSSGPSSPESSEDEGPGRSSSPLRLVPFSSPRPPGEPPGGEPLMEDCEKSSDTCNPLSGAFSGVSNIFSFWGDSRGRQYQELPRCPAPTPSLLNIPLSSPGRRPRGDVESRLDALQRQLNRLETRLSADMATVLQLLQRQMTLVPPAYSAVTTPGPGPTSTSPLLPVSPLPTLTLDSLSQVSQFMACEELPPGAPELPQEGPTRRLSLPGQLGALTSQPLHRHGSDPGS
A short description of series [13]: Inhibition of HCV genotype 1a NS3/4A protease. Set-up: species or system Hepatitis C virus subtype 1a.
Series [14] can be described thus: Clearance in CD-1 mouse at 2 mg/kg, iv administered as single dose measured after 24 hrs. Type of series: ADME, organism-based. The settings on record: in vivo.
For a further series, the system named is Mus musculus. Put plainly: Toxicity in mouse assessed as effect on gastrointestinal motility at 250 mg/kg, po administered as single dose. Type of series: organism-based. The settings on record: in vivo.

Cytochrome P450 2D6, sequence (P10635 whole entry): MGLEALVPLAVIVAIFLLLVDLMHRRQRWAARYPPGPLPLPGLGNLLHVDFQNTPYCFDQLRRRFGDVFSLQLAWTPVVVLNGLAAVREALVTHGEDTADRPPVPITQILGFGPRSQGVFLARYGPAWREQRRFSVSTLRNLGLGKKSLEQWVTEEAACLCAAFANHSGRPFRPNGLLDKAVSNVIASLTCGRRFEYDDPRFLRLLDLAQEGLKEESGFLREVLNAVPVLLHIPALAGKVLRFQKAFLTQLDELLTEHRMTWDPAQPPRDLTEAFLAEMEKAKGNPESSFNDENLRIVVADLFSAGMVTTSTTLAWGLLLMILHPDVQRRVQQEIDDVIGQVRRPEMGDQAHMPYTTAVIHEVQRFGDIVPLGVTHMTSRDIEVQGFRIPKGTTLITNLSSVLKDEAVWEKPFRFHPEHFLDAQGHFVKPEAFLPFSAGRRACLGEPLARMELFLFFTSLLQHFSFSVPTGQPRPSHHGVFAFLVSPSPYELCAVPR

As a reminder, the IC50 is the point on the concentration scale where inhibition reaches its midpoint. The Papp is a coefficient for how fast a substance crosses the barrier. As usually defined, the EC50 is the midpoint of the concentration-response curve. What is called Cmax is the peak of the concentration-time curve. Usually AUC(0-inf) stands for the area under the concentration-time curve extrapolated to infinity. As a reminder, the AUC(0-t) is exposure summed from dosing to a finite time, without extrapolation to infinity. By clearance is commonly meant the volume of plasma or blood freed of the substance per unit of time. Usually half-life stands for how long it takes for the measured level to halve. By Tmax is commonly meant the time at which the peak concentration occurs. Consider `COc1ccc2c(O[C@H]3CCN4C(=O)N(C)CCCCC=C[C@@H]5C[C@@]5(C(=O)NS(=O)(=O)C5(C)CC5)NC(=O)[C@@H]4C3)cc(-c3nc(C(F)(F)F)cs3)nc2c1C`, for which the IC50 in [1] was not below 10000 nM; in [6], 0.5 nM; at Cytochrome P450 2D6 it was not below 10000 nM; in series [13], 0.8 nM. For the same molecule, the apparent permeability coefficient (Papp) in series [2] turned out to be 1.8 ×10⁻⁶ cm/s. Moreover, in the series with Hepatitis C virus, the EC50 was found to be 0.7 nM. The molecule further returned a Cmax in series [3] of 934 ng/mL. For the same molecule, the AUC(0-inf) in [4] came out at 9580 ng·h/mL. Moreover, the results for the concentration at 24 h in series [5] and in series [8] were 81 ng/mL and 1.5 ng/mL, respectively. For the same molecule, the AUC(0-t) in series [7] came out at 1750 ng·h/mL. Besides, the values for the clearance in series [9] and in series [14] were 18.8 mL/min/kg and 8 mL/min/kg, respectively. Moreover, the half-life in series [10] is 6.3 h. In addition, the Tmax in series [11] stood at 1 h. Also, in series [12], the “inhibition (INH)” value is reported as “Not Active”. In addition, the Activity result with Mus musculus is “Non-toxic”.

Source of the values: ChEMBL document CHEMBL3632591, “Discovery and structural diversity of the hepatitis C virus NS3/4A serine protease inhibitor series leading to clinical candidate IDX320” (Bioorg Med Chem Lett, 2015).
